Legend:
Format in all cases: in vivo
Phakopsora pachyrhizi = experiment: Test A: Asian soybean rust control on soybean seedlings; settings: 250 ppm, soybean seedlings, 100 = 100% disease control, 0 = no control
[1] = test system: Puccinia recondita f. sp. tritici; experiment: Test B: wheat leaf rust control on wheat seedlings; settings: 250 ppm, wheat seedlings, 100 = 100% disease control, 0 = no control
Zymoseptoria tritici = experiment: Test C: wheat leaf blotch control on wheat seedlings; settings: 250 ppm, wheat seedlings, 100 = 100% disease control, 0 = no control
Plasmopara viticola = experiment: Test D: grape downy mildew control on grape seedlings; settings: 250 ppm, 100 = 100% disease control, 0 = no control
Botrytis cinerea = experiment: Test E: tomato Botrytis control on tomato seedlings; settings: 250 ppm, 100 = 100% disease control, 0 = no control
Phytophthora infestans = experiment: whole plant or invertebrate; settings: tomato seedlings, 100 = 100% disease control, 0 = no control; for Test F disease control rating: 250 ppm
[2] = test system: Erysiphe graminis f. sp. tritici; experiment: Test G: wheat powdery mildew control on wheat seedlings; settings: 250 ppm, 100 = 100% disease control, 0 = no control

SMILES | Test A disease control rating (Phakopsora pachyrhizi) [%] | Test B disease control rating [1] [%] | Test C disease control rating (Zymoseptoria tritici) [%] | Test D disease control rating (Plasmopara viticola) [%] | Test E disease control rating (Botrytis cinerea) [%] | Test F disease control rating (Phytophthora infestans) [%] | Test G disease control rating [2] [%] | pest or weed control at 250 ppm (Phakopsora pachyrhizi; Phakopsora pachyrhizi, read-out: Test A disease control rating) [%] | pest or weed control at 250 ppm ([1]; Puccinia recondita, read-out: Test B disease control rating) [%] | pest or weed control at 250 ppm (Zymoseptoria tritici; Zymoseptoria tritici, read-out: Test C disease control rating) [%] | pest or weed control at 250 ppm (Plasmopara viticola; Plasmopara viticola, read-out: Test D disease control rating) [%] | pest or weed control at 250 ppm (Botrytis cinerea; Botrytis cinerea, read-out: Test E disease control rating) [%] | pest or weed control at 250 ppm (Phytophthora infestans; Phytophthora infestans, in Solanum lycopersicum, read-out: Test F disease control rating, 250 ppm) [%] | pest or weed control at 250 ppm ([2]; Blumeria graminis, read-out: Test G disease control rating) [%]
COc1ccnc(C(=O)N[C@@H](C)C(=O)OC(C)c2ccc(-n3ccc(C(F)(F)F)n3)cc2Cc2ccccc2)c1O (stereo partly shown) [Compound 93] | 99 | 74 | 72 | 0 | 0 | 0 | 0 |  |  |  |  |  |  | 
CCC(OC(=O)[C@H](C)NC(=O)c1nccc(OC)c1O)C1CCCCC1 (mixture of isomers) [Compound 84, N-[(3-hydroxy-4-methoxy-2-pyridinyl)carbonyl]-L-alanine 1-cyclohexylpropyl ester] |  |  |  |  |  |  |  | 100 | 100 | 57 | 21 | 0 | 0 | 0
CCOC(=O)c1ccn(-c2ccc(C(C)OC(=O)C(C)NC(=O)c3nccc(OC)c3OC(C)=O)cc2)n1 (mixture of isomers) [Compound 48] | 55 | 55 | 8 | 4 | 0 | 0 | 0 |  |  |  |  |  |  | 
CCC(OC(=O)[C@H](C)NC(=O)c1nccc(OC)c1OC(C)=O)C1CCCCC1 (single isomer, unassigned) [Compound 169] | 100 | 41 | 83 | 17 | 0 | 0 | 35 |  |  |  |  |  |  | 
COc1ccnc(C(=O)NC(C)C(=O)OC(C)c2cccc(-n3ccc(C(F)(F)F)n3)c2)c1O (mixture of isomers) [Compound 28] | 99 | 74 | 90 | 40 | 0 | 0 | 0 |  |  |  |  |  |  | 
COc1ccnc(C(=O)N[C@@H](C)C(=O)OC(c2ccc(C3CCCCC3)cc2)C(F)(F)F)c1O (stereo partly shown) [Compound 120] | 99 | 94 | 95 | 24 | 0 | 0 | 0 |  |  |  |  |  |  | 
COc1ccnc(C(=O)NC(C)C(=O)OC(C)c2ccc(C#N)cc2)c1OC(C)=O (mixture of isomers) [Compound 33] | 13 | 0 | 87 | 66 | 0 | 0 | 0 |  |  |  |  |  |  | 
COc1ccnc(C(=O)N[C@@H](C)C(=O)OC(C)c2cccc(-c3ccccc3)c2)c1O (single isomer, unassigned) [Compound 4] | 99 | 41 | 28 | 56 | 31 | 0 | 0 |  |  |  |  |  |  | 
CCC(OC(=O)[C@H](C)NC(=O)c1nccc(OC)c1OCOC(=O)C(C)C)c1ccc(C2CCCCC2)cc1 (single isomer, unassigned) [Compound 133] | 100 | 99 | 93 | 24 | 0 | 0 | 0 |  |  |  |  |  |  | 
COc1ccnc(C(=O)NC(C)C(=O)OC(C)c2cc3ccccc3o2)c1O (mixture of isomers) [Compound 125] | 99 | 90 | 90 | 67 | 0 | 0 | 0 |  |  |  |  |  |  | 
COc1ccnc(C(=O)NC(C)C(=O)OC(C)C2CCCCC2)c1O (mixture of isomers) [Compound 126] | 0 | 0 | 10 | 3 | 0 | 0 | 0 |  |  |  |  |  |  | 
COc1ccnc(C(=O)NC(C)C(=O)OC(C)c2cccc(C3CC3)c2)c1OC(C)=O (mixture of isomers) [Compound 157] | 100 | 100 | 86 | 63 | 0 | 0 | 0 |  |  |  |  |  |  | 
COc1ccnc(C(=O)NC(C)C(=O)OC(C)c2ccccc2Cc2ccc(F)cc2)c1O (mixture of isomers) [Compound 13] | 100 | 100 | 73 | 50 | 0 | 0 | 0 |  |  |  |  |  |  | 

— patent publication US20230131966A1, “FUNGICIDAL AMIDES” (FMC Corporation, priority 2020, published 2023)
